According to ChEMBL document CHEMBL3885881, “DrugMatrix”:

Organism: Rattus norvegicus
Experiment: DrugMatrix - Regimen: Daily Repeat
Format: toxicity, organism-based, Sprague-Dawley
Parameters: regimen Daily Repeat, gender Male, age 6-8 weeks
Conditions: in vivo, po, route oral GAVAGE, vehicle .5 % CMC; for BASOPHIL / EOSINOPHIL / ERYTHROCYTE COUNT / HEMATOCRIT / HEMOGLOBIN / LEUKOCYTE COUNT / LYMPHOCYTE / MEAN CORPUSCULAR HEMOGLOBIN / MEAN CORPUSCULAR HEMOGLOBIN CONCENTRATION / MEAN CORPUSCULAR VOLUME / MONOCYTE / NEUTROPHIL / PLATELET COUNT: tissue Blood; for ALANINE AMINOTRANSFERASE / ALBUMIN / ALKALINE PHOSPHATASE / ASPARTATE AMINOTRANSFERASE / BLOOD UREA NITROGEN / CHLORIDE / CHOLESTEROL / CREATINE PHOSPHOKINASE / CREATININE / GLUCOSE / PHOSPHORUS / POTASSIUM / SODIUM / TOTAL BILIRUBIN / TOTAL PROTEIN: tissue Plasma
[1] = 0 mg/kg, 72 h, dose level Control, time 3 day
[2] = 0 mg/kg, 120 h, dose level Control, time 5 day
[3] = 3 mg/kg, 72 h, dose level Low, time 3 day
[4] = 3 mg/kg, 120 h, dose level Low, time 5 day

## O=C1CCC(N2C(=O)c3ccccc3C2=O)C(=O)N1 (configuration not stated) [THALIDOMIDE]
[1]
  BASOPHIL: 1.52%
  EOSINOPHIL: 0.98%
  ERYTHROCYTE COUNT: 6.96 x10E6/uL
  HEMATOCRIT: 44.65%
  HEMOGLOBIN: 13.62 G/DL
  LEUKOCYTE COUNT: 9.83 x10E3/uL
  LYMPHOCYTE: 76.48%
  MEAN CORPUSCULAR HEMOGLOBIN: 19.57 pg
  MEAN CORPUSCULAR HEMOGLOBIN CONCENTRATION: 30.47 G/DL
  MEAN CORPUSCULAR VOLUME: 64.22 fL
  MONOCYTE: 2.13%
  NEUTROPHIL: 18.6%
  PLATELET COUNT: 1217.17 x10E3/uL
  ALANINE AMINOTRANSFERASE: 41 u/L
  ALBUMIN: 3.77 G/DL
  ALKALINE PHOSPHATASE: 411.83 u/L
  ASPARTATE AMINOTRANSFERASE: 62.83 u/L
  BLOOD UREA NITROGEN: 15.17 mg/dL
  CHLORIDE: 104.33 MEQ/L
  CHOLESTEROL: 71.17 mg/dL
  CREATINE PHOSPHOKINASE: 123.5 u/L
  CREATININE: 0.55 mg/dL
  GLUCOSE: 182.67 mg/dL
  PHOSPHORUS: 11.23 mg/dL
  POTASSIUM: 7.03 MEQ/L
  SODIUM: 148 MEQ/L
  TOTAL BILIRUBIN: 0.57 mg/dL
  TOTAL PROTEIN: 6.85 G/DL
[2]
  BASOPHIL: 1.35%
  EOSINOPHIL: 0.43%
  ERYTHROCYTE COUNT: 6.96 x10E6/uL
  HEMATOCRIT: 44.35%
  HEMOGLOBIN: 13.98 G/DL
  LEUKOCYTE COUNT: 9.45 x10E3/uL
  LYMPHOCYTE: 80.83%
  MEAN CORPUSCULAR HEMOGLOBIN: 20.1 pg
  MEAN CORPUSCULAR HEMOGLOBIN CONCENTRATION: 31.52 G/DL
  MEAN CORPUSCULAR VOLUME: 63.72 fL
  MONOCYTE: 2.37%
  NEUTROPHIL: 14.05%
  PLATELET COUNT: 1298 x10E3/uL
  ALANINE AMINOTRANSFERASE: 42.17 u/L
  ALBUMIN: 3.77 G/DL
  ALKALINE PHOSPHATASE: 419 u/L
  ASPARTATE AMINOTRANSFERASE: 66.67 u/L
  BLOOD UREA NITROGEN: 16.67 mg/dL
  CHLORIDE: 103.17 MEQ/L
  CHOLESTEROL: 66.33 mg/dL
  CREATINE PHOSPHOKINASE: 148.33 u/L
  CREATININE: 0.58 mg/dL
  GLUCOSE: 196.83 mg/dL
  PHOSPHORUS: 11.8 mg/dL
  POTASSIUM: 6.47 MEQ/L
  SODIUM: 148.33 MEQ/L
  TOTAL BILIRUBIN: 0.53 mg/dL
  TOTAL PROTEIN: 6.77 G/DL
[3]
  BASOPHIL: 1.53%
  EOSINOPHIL: 0.27%
  ERYTHROCYTE COUNT: 6.9 x10E6/uL
  HEMATOCRIT: 43.27%
  HEMOGLOBIN: 13.43 G/DL
  LEUKOCYTE COUNT: 12.1 x10E3/uL
  LYMPHOCYTE: 84.1%
  MEAN CORPUSCULAR HEMOGLOBIN: 19.47 pg
  MEAN CORPUSCULAR HEMOGLOBIN CONCENTRATION: 31.03 G/DL
  MEAN CORPUSCULAR VOLUME: 62.73 fL
  MONOCYTE: 2.13%
  NEUTROPHIL: 11.37%
  PLATELET COUNT: 1452.67 x10E3/uL
  ALANINE AMINOTRANSFERASE: 33 u/L
  ALBUMIN: 3.63 G/DL
  ALKALINE PHOSPHATASE: 276 u/L
  ASPARTATE AMINOTRANSFERASE: 53.33 u/L
  BLOOD UREA NITROGEN: 11 mg/dL
  CHLORIDE: 103 MEQ/L
  CHOLESTEROL: 57.67 mg/dL
  CREATINE PHOSPHOKINASE: 135.33 u/L
  CREATININE: 0.5 mg/dL
  GLUCOSE: 177.33 mg/dL
  PHOSPHORUS: 12.77 mg/dL
  POTASSIUM: 6.87 MEQ/L
  SODIUM: 148.67 MEQ/L
  TOTAL BILIRUBIN: 0.33 mg/dL
  TOTAL PROTEIN: 6.27 G/DL
[4]
  BASOPHIL: 2.03%
  EOSINOPHIL: 0.3%
  ERYTHROCYTE COUNT: 6.85 x10E6/uL
  HEMATOCRIT: 42.57%
  HEMOGLOBIN: 13.47 G/DL
  LEUKOCYTE COUNT: 11.43 x10E3/uL
  LYMPHOCYTE: 80.43%
  MEAN CORPUSCULAR HEMOGLOBIN: 19.63 pg
  MEAN CORPUSCULAR HEMOGLOBIN CONCENTRATION: 31.7 G/DL
  MEAN CORPUSCULAR VOLUME: 62.13 fL
  MONOCYTE: 3.03%
  NEUTROPHIL: 13.67%
  PLATELET COUNT: 1535.33 x10E3/uL
  ALANINE AMINOTRANSFERASE: 37 u/L
  ALBUMIN: 3.47 G/DL
  ALKALINE PHOSPHATASE: 320 u/L
  ASPARTATE AMINOTRANSFERASE: 57 u/L
  BLOOD UREA NITROGEN: 12 mg/dL
  CHLORIDE: 102.67 MEQ/L
  CHOLESTEROL: 62.33 mg/dL
  CREATINE PHOSPHOKINASE: 138 u/L
  CREATININE: 0.5 mg/dL
  GLUCOSE: 187.67 mg/dL
  PHOSPHORUS: 11.93 mg/dL
  POTASSIUM: 6.03 MEQ/L
  SODIUM: 146.33 MEQ/L
  TOTAL BILIRUBIN: 0.3 mg/dL
  TOTAL PROTEIN: 6.13 G/DL
